Earlier results on 1 compound are cited in patent US20100197704A1, “PHARMACEUTICAL COMPOSITIONS AND METHOD FOR TREATING ACUTE MANIA” (priority 2007, published 2010).

Holding throughout (conditions): cited from earlier work
Data set [1] has as its target presynaptic D2 receptors (Homo sapiens, UniProt P14416).
Data set [2] addresses T1, 5-HT2C (Homo sapiens, UniProt P28335).
T1 sequence (P28335 33-458): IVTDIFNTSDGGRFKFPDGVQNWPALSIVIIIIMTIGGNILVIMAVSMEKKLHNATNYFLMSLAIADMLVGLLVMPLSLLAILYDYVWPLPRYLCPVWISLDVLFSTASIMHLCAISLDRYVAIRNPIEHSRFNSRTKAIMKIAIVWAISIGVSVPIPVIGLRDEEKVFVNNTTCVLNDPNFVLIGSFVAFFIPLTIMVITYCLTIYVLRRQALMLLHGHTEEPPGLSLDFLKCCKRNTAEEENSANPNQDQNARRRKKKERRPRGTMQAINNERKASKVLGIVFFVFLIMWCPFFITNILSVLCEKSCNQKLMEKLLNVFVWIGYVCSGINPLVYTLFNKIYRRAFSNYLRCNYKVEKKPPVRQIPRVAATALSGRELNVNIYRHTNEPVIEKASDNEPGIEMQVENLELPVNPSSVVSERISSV

Data set [3] concerns the target T2, serotonin 5-HT1A receptors (Homo sapiens, UniProt P08908).
T2 sequence (P08908 1-422): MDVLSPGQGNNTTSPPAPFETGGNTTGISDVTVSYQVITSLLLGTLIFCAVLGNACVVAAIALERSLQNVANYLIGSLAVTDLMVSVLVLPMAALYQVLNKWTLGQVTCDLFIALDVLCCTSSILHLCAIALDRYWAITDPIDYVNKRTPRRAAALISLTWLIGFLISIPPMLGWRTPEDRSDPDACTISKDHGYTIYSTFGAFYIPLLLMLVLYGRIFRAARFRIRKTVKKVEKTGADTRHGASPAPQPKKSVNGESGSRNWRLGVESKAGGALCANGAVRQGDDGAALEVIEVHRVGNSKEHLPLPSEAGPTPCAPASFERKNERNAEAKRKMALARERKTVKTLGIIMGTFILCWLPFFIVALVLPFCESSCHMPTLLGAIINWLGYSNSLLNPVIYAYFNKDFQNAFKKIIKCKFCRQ

In data set [4] the test system is adrenergic receptor sites.
The target of data set [5] is histamine H1 (Homo sapiens, UniProt P35367).
Chain of histamine H1 (P35367 whole entry): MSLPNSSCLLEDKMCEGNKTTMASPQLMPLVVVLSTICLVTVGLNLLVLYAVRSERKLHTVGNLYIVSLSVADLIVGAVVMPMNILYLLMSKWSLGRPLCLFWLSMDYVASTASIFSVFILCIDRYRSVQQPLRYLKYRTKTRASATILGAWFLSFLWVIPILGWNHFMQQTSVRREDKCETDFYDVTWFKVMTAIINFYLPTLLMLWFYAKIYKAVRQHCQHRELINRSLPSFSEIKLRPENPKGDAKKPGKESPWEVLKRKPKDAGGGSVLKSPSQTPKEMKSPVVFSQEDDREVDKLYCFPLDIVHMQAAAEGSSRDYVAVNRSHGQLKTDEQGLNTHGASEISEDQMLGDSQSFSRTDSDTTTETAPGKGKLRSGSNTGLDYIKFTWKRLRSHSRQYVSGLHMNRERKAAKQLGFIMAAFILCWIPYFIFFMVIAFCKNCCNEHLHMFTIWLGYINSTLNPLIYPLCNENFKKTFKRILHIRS
Data set [6] concerns the target T2, serotonin 5-HT1A receptors. This is another data set of the same source.

Chain of presynaptic D2 receptors (P14416 whole entry): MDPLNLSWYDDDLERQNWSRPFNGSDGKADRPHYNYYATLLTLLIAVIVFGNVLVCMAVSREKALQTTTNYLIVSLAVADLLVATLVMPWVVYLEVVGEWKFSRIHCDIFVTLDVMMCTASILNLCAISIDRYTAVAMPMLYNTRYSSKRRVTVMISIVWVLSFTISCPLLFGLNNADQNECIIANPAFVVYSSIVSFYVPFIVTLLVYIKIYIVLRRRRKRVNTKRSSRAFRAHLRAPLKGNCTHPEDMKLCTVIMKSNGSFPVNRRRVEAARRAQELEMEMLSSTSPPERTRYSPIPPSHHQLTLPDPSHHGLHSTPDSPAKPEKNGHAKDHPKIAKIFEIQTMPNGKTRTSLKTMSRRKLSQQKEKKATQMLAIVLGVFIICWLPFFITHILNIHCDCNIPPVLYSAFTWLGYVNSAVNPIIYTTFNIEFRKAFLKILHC

Regarding `CN(C)C(=O)NC1CCC(CCN2CCN(c3cccc(Cl)c3Cl)CC2)CC1.Cl` (stereo not drawn) [trans-4-{2-[4-(2,3-dichlorophenyl)-piperazin-1-yl]-ethyl}-N,N-dimethylcarbamoyl-cyclohexylamine hydrochloride], the “activity on biosynthesis (and release) modulating presynaptic D2 receptors” value in data set [1] (depending on the functional status of the particular dopaminergic system) was “both (partial) agonist and antagonist activity”. In data set [1] (in vivo, preferential dopaminergic actions in the limbic regions), the “in vivo mode of action on the dopamine system” value is recorded as “dopamine system stabilizer”. In addition, in data set [2], the “potency at 5-HT2C receptor site” value is on record as “low potency”. The “functional activity at serotonin 5-HT1A receptors” value in data set [3] is reported as “partial agonist”. Further, the “potency at adrenergic receptor sites” value in data set [4] is “low potency”. In addition, the “potency at histamine H1 receptor site” value in data set [5] is “low potency”. For the same compound, in data set [6], the “affinity for serotonin 5-HT1A receptors” value is “considerable affinity”.
